Structures are written as SMILES.

The record followed here is patent US11802114B2, “Compounds and methods for detection of superoxide” (Promega Corporation, priority 2021, dated 2023).

The test system of assay [1] is superoxide. Nature of the assay: Cell-free detection of and specificity for superoxide (luciferase luminescence). The note with it: probe 25 μM in PBS, FIG. 3. In kind it is biochemical. As to the method: The superoxide probe, Compound 1 (6-(4-hydroxy-3,5-dimethoxyphenoxy)benzo[d]thiazole-2-carbonitrile), was diluted into PBS to 25 μM into wells of a 96-well white-walled assay plate. Subsequently, generators of reactive oxygen and nitrogen species were diluted in PBS and added to the assay plate. The plate mixed using an orbital plate shaker for 5 minutes followed by a 30-minute incubation at room temperature protected from light. For luciferin detection, the luciferin-utilizing luciferase enzyme, UltraGlo (Promega Corporation), was prepared by mixing Luciferin Detection Reagent (Promega), Reconstitution Buffer (Promega), and d-Cysteine (Promega), and one volume was added to the reaction. The plate was mixed using an orbital plate shaker, and luminescence was measured using a GloMax® luminometer. Data are shown in FIG. 3; the blank includes PBS only; HX=hypoxanthine; XO=xanthine oxidase; and SOD=superoxide dismutase. […] This signal decreased in the presence of superoxide dismutase, confirming that superoxide is the source of the signal.

For assay [2], the system named is Human hepatocarcinoma cells (Hep G2). Nature of the assay: Detection of superoxide in cells. Conditions: probe 12.5 uM, 1 hour at 37° C., FIG. 4. In kind it is cell-based. As to the method: Human hepatocarcinoma cells (Hep G2) were plated into wells of 96-well white-walled assay tissue culture plates. Plated cells were incubated overnight in a humidified tissue culture incubator at 37° C. with 5% CO2. The following day the superoxide probe, Compound 1 (6-(4-hydroxy-3,5-dimethoxyphenoxy)benzo[d]thiazole-2-carbonitrile), was added to the cells in culture medium at a final concentration of 12.5 uM. Subsequently, dimethoxynaphthoquinone (DMNQ; 50 μM) or antimycin A (10 μM) diluted in culture medium was added to the reaction wells and the assay plate(s) were incubated for 1 hour in a humidified tissue culture incubator at 37° C. with 5% C02. For luciferin detection, the luciferin-utilizing luciferase enzyme, UltraGlo (Promega Corporation), was prepared by mixing Luciferin Detection Reagent (Promega), Reconstitution Buffer (Promega), and d-Cysteine (Promega), and one volume was added to the reaction. The plate was mixed using an orbital plate shaker, and luminescence was measured using a GloMax® luminometer.

Assay [3] deals with RAW 247.6 macrophage cell line. Nature of the assay: Detection of PMA-induced superoxide production by macrophages. In kind it is cell-based. The note with it: 50 μl of 50 μM Compound 18 (FIG. 6A) or 100 μM Compound 20 (FIG. 6B), 2 hours at 37° C.; for luminescence signal with PMA treatment: 20 μM PMA. As for the experimental part:
Production of superoxide by macrophages plays an important role in immune response and inflammation. Superoxide is produced by nicotinamide adenine dinucleotide phosphate (NADPH) oxidases (known as NOX enzymes) and is induced by PMA (4β-phorbol-12-myristate-13-acetate). Here is shown an example of measuring PMA-induced superoxide production in RAW 247.6 macrophage cell line. RAW 247.6 cells were plated overnight in DMEM medium with 10% FBS. To start the experiment, the medium was removed, cells were washed once with PBS, and 50 μl of PBS containing 5 mM glucose, 1 mM MgCl2, 0.5 mM CaCl2, and 0.05% BSA was added to the cells in the presence or absence of 20 μM PMA. To measure production of superoxide, 50 μl of 50 μM Compound 18 (FIG. 6A) or 100 μM Compound 20 (FIG. 6B) was added to the cells. Cells were treated for 2 hours at 37° C. with luciferin production measured by adding equal volume of Luciferin Detection Reagent with esterases, and luminescence read after 20 minutes incubation at room temperature.

Assay [4] concerns xanthine oxidase. Briefly: Detection of xanthine oxidase activity in vitro. In kind it is biochemical. Conditions: 25 μl of 75 μM probe, FIG. 5. The source says: Xanthine oxidase (XO) is an enzyme that catalyzes the oxidation of hypoxanthine or xanthine to uric acid and superoxide. XO is normally found in liver and jejunum and plays an important role in the catabolism of purines. During severe liver damage, xanthine oxidase is released into blood and can be used as a marker for liver damage. Here is shown an example of measuring xanthine oxidase activity using pro-luciferin compounds described herein. Purified xanthine oxidase was 3× fold serially diluted in 0.1M Tris (pH7.5). 25 μl of diluted enzyme was transferred into wells of a 96-well assay plate, and the reaction was started by adding 25 μl of 300 μM xanthine and 25 μl of 75 μM Compound 20. After 10, 20, 30, and 60 minutes incubations at 37° C., 75 μl of Luciferin Detection Reagent containing esterases was added to the samples, and luminescence was read after additional 20 minutes incubation at room temperature.

Assay [5] concerns RAW 247.6 macrophage cells. Briefly: Detection of superoxide production in kinetic mode (media sampling). Type of assay: cell-based. Conditions: 50 μM probe, 20 μM PMA, 10, 20, 30 and 60 minutes, FIG. 7. As for the experimental part:
RAW 247.6 macrophage cells were plated at 30,000 cells per well overnight in DMEM medium with 10% FBS. The following day, the medium was removed, and cells were washed with PBS. 100 μl PBS containing 5 mM glucose, 1 mM MgCl2, 0.5mM CaCl2, 0.05% BSA, and 50 μM Compound 20 were added to the cells in the presence or absence of 20 μM PMA. The cells were placed back at 37° C. in tissue culture incubator. At different time points (10, 20, 30 and 60 minutes), 10 μl was removed from the samples, mixed with 10 μl of Luciferin Detection Reagent with esterases, and luminescence read following a 20 minute incubation at room temperature.

Consider `COc1cc(Oc2ccc3nc(C#N)sc3c2)cc(OC)c1O` [Compound 1, 6-(4-hydroxy-3,5-dimethoxyphenoxy)benzo[d]thiazole-2-carbonitrile], for which, in assay [1] (30-minute incubation), the “luminescence signal in the presence of NONOate” value is reported as “Little to no signal”, the “luminescence signal in the presence of Rose Bengal (generates singlet oxygen)” value was “Little to no signal”, the “luminescence signal in the presence of hydrogen peroxide” value is on record as “Little to no signal” and the “luminescence signal in the presence of sodium nitrite” value is on record as “Little to no signal”. The “luminescence signal in the presence of superoxide dismutase” value in assay [1] (HX + XO + SOD) was “decreased”. Further, the “luminescence signal in the presence of HX and XO” value in assay [1] (hypoxanthine + xanthine oxidase (superoxide generator), 30-minute incubation at room temperature) is recorded as “strong signal”. In addition, in assay [2] (DMNQ 50 μM), the “luminescence signal when cells were treated with DMNQ” value is “increase in signal”. For the same compound, the “luminescence signal when cells were treated with antimycin A” value in assay [2] (antimycin A 10 μM) is reported as “increase in signal”.
Take `CN(CCN(C)C(=O)Oc1ccc2nc(C3=N[C@@H](C(=O)O)CS3)sc2c1)C(=O)Oc1ccc(O)c(O)c1` [Compound 18, (S)-2-(6-(((2-(((3,4-dihydroxyphenoxy)carbonyl)(methyl)amino)ethyl)(methyl)carbamoyl)oxy)benzo[d]thiazol-2-yl)-4,5-dihydrothiazole-4-carboxylic acid]: in assay [3], the “luminescence signal with PMA treatment” value is “increased significantly” and the “luminescence signal in the presence of cells compared to medium only control” value is reported as “higher luminescence signal”.
`COC(=O)[C@H]1CSC(c2nc3ccc(OC(=O)N(C)CCN(C)C(=O)Oc4ccc(OC(C)=O)c(OC(C)=O)c4)cc3s2)=N1` [Compound 20, (S)-4-(((2-((((2-(4-(methoxycarbonyl)-4,5-dihydrothiazol-2-yl)benzo[d]thiazol-6-yl)oxy)carbonyl)(methyl)amino)ethyl)(methyl)carbamoyl)oxy)-1,2-phenylene diacetate]: the “increase in luminescence signal versus xanthine oxidase concentration and time” value in assay [4] (300 μM xanthine, 10, 20, 30, and 60 minutes at 37° C.) is “linear with respect to xanthine oxidase concentration and time”. The “increase in luminescence signal, dependence on substrate” value in assay [4] (25 μl of 300 μM xanthine, serially diluted XO, 37° C.) is reported as “depended on the presence of the xanthine oxidase substrate, xanthine”. Moreover, in assay [3], the “luminescence signal with PMA treatment” value is recorded as “increased significantly” and the “luminescence signal in the presence of cells compared to medium only control” value is listed as “higher luminescence signal”. Also, the “luminescence signal over time in cells treated with PMA” value in assay [5] is recorded as “time dependent increase in signal”.
